Patent US8580709B2, “Plant growth regulation” (Syngenta Crop Protection, LLC, priority 2009, dated 2013)

Experiments:
Format in all cases: in vivo
Spring-barley Pasadena = test: Plant growth regulation on cereals, greenhouse spray, visual shoot growth reduction; conditions: 13 days after application, growth stage 30-32, vs untreated control
Description: (§1) Plants were grown under greenhouse conditions and sprayed at growth stage 30-32 (start of stem elongation) of cereal plants with a boom sprayer. Trinexapac-ethyl (treatment A) was applied as Moddus® ME250 formulation, and Prohexadione-Ca (treatment B) was applied as Viviful® WG10 formulation with a standard flat fan nozzle at 200 l/ha spray volume. 13 days after application the plant growth reduction (% GR) of the shoot (leaves and stem) was evaluated visually compared to the untreated control. The expected plant growth reduction was calculated according to Colby (Colby 1967, Weeds 15, 20-22) and compared to evaluation data of sprayed plants.

Spring-wheat Lona = test: as above; conditions: 13 days after application, growth stage 30-32, vs untreated control
Description: as §1

Winter-barley Hasso = test: as above; conditions: 13 days after application, growth stage 30-32, vs untreated control
Description: as §1

Winter-wheat Arina = test: as above; conditions: 13 days after application, growth stage 30-32, vs untreated control
Description: as §1

Corn ECO5133 = test: Plant growth regulation on corn, greenhouse spray, visual shoot growth reduction; conditions: 33 days after application, growth stage 13, vs untreated control
Description: as §1, with “Corn plants of 4 different varieties” for “Plants”, “13 (3 leaves unfolded)” for “30-32 (start of stem elongation) of cereal plants”, “Trinexapac-ethyl” for “Trinexapac-ethyl (treatment A)”, “Prohexadion-Ca” for “Prohexadione-Ca (treatment B)”, “WG 10” for “WG10”, “33” for “13”

Corn LG22.65 = test: as above; conditions: 33 days after application, growth stage 13, vs untreated control
Description: as §1, with “Corn plants of 4 different varieties” for “Plants”, “13 (3 leaves unfolded)” for “30-32 (start of stem elongation) of cereal plants”, “Trinexapac-ethyl” for “Trinexapac-ethyl (treatment A)”, “Prohexadion-Ca” for “Prohexadione-Ca (treatment B)”, “WG 10” for “WG10”, “33” for “13”

Corn Maeva = test: as above; conditions: 33 days after application, growth stage 13, vs untreated control
Description: as §1, with “Corn plants of 4 different varieties” for “Plants”, “13 (3 leaves unfolded)” for “30-32 (start of stem elongation) of cereal plants”, “Trinexapac-ethyl” for “Trinexapac-ethyl (treatment A)”, “Prohexadion-Ca” for “Prohexadione-Ca (treatment B)”, “WG 10” for “WG10”, “33” for “13”

Corn Ronaldinio = test: as above; conditions: 33 days after application, growth stage 13, vs untreated control
Description: as §1, with “Corn plants of 4 different varieties” for “Plants”, “13 (3 leaves unfolded)” for “30-32 (start of stem elongation) of cereal plants”, “Trinexapac-ethyl” for “Trinexapac-ethyl (treatment A)”, “Prohexadion-Ca” for “Prohexadione-Ca (treatment B)”, “WG 10” for “WG10”, “33” for “13”

Compound | % GR (plant growth reduction of the shoot) (Spring-barley Pasadena; 25 g a.i./ha) [%] | % GR (plant growth reduction of the shoot) (Spring-barley Pasadena; 50 g a.i./ha) [%] | % GR (plant growth reduction of the shoot) (Spring-wheat Lona; 25 g a.i./ha) [%] | % GR (plant growth reduction of the shoot) (Spring-wheat Lona; 50 g a.i./ha) [%] | % GR (plant growth reduction of the shoot) (Winter-barley Hasso; 25 g a.i./ha) [%] | % GR (plant growth reduction of the shoot) (Winter-barley Hasso; 50 g a.i./ha) [%] | % GR (plant growth reduction of the shoot) (Winter-wheat Arina; 25 g a.i./ha) [%] | % GR (plant growth reduction of the shoot) (Winter-wheat Arina; 50 g a.i./ha) [%] | % GR (plant growth reduction of the shoot) (Corn ECO5133; 25 g a.i./ha) [%] | % GR (plant growth reduction of the shoot) (Corn ECO5133; 50 g a.i./ha) [%] | % GR (plant growth reduction of the shoot) (Corn ECO5133; 100 g a.i./ha) [%] | % GR (plant growth reduction of the shoot) (Corn LG22.65; 25 g a.i./ha) [%] | % GR (plant growth reduction of the shoot) (Corn LG22.65; 50 g a.i./ha) [%] | % GR (plant growth reduction of the shoot) (Corn LG22.65; 100 g a.i./ha) [%] | % GR (plant growth reduction of the shoot) (Corn Maeva; 25 g a.i./ha) [%] | % GR (plant growth reduction of the shoot) (Corn Maeva; 50 g a.i./ha) [%] | % GR (plant growth reduction of the shoot) (Corn Maeva; 100 g a.i./ha) [%] | % GR (plant growth reduction of the shoot) (Corn Ronaldinio; 25 g a.i./ha) [%] | % GR (plant growth reduction of the shoot) (Corn Ronaldinio; 50 g a.i./ha) [%] | % GR (plant growth reduction of the shoot) (Corn Ronaldinio; 100 g a.i./ha) [%]
CCOC(=O)C1CC(=O)C(=C(O)C2CC2)C(=O)C1 (stereo not shown) [A, Trinexapac-ethyl] | 0.0 | 0.0 | 1.7 | 3.3 | 0.0 | 5.0 | 0.0 | 5.0 | 1.7 | 1.7 | 6.7 | 0.0 | 3.3 | 11.7 | 1.7 | 3.3 | 6.7 | 0.0 | 0.0 | 3.3
CCC(=O)C1=C([O-])CC(C(=O)[O-])CC1=O.[Ca+2] (stereo not shown) [B, Prohexadione-Ca] | 0.0 | 1.7 | 0.0 | 3.3 | 0.0 | 5.0 | 0.0 | 3.3 | 0.0 | 0.0 | 0.0 | 0.0 | 1.7 | 13.3 | 1.7 | 5.0 | 18.3 | 0.0 | 0.0 | 1.7
